Experimental data reported in ChEMBL document CHEMBL2429780, “Synthesis, antimicrobial and cytotoxic activity of 2-azetidinone derivatives of pyridyl benzimidazoles” (Med Chem Res, 2013).
Calls of active or inactive are those of the source.

Experiments:
Type in all cases: functional, organism-based
[1] = tested on: Aspergillus niger; experiment: Antifungal activity against Aspergillus niger assessed as growth inhibition at 12.5 to 1000 ug/mL after 48 hrs by broth dilution assay
[2] = tested on: Pseudomonas aeruginosa; experiment: Antibacterial activity against Pseudomonas aeruginosa MTCC 1688 assessed as growth inhibition at 12.5 to 1000 ug/mL after 24 hrs by broth dilution assay
[3] = tested on: Candida albicans; experiment: Antifungal activity against Candida albicans assessed as growth inhibition at 12.5 to 1000 ug/mL after 48 hrs by broth dilution assay
[4] = tested on: Aspergillus clavatus; experiment: Antifungal activity against Aspergillus clavatus assessed as growth inhibition at 12.5 to 1000 ug/mL after 48 hrs by broth dilution assay
[5] = tested on: Escherichia coli; experiment: Antibacterial activity against Escherichia coli MTCC 443 assessed as growth inhibition at 12.5 to 1000 ug/mL after 24 hrs by broth dilution assay
[6] = tested on: Streptococcus pyogenes; experiment: Antibacterial activity against Streptococcus pyogenes MTCC 442 assessed as growth inhibition at 12.5 to 1000 ug/mL after 24 hrs by broth dilution assay
[7] = tested on: Staphylococcus aureus; experiment: Antibacterial activity against Staphylococcus aureus MTCC 96 assessed as growth inhibition at 12.5 to 1000 ug/mL after 24 hrs by broth dilution assay

Measured: growth inhibition (GI)

N#Cc1c(-c2ccccc2)cc(-c2nc3ccccc3[nH]2)nc1N
inactive: all assays above

N#Cc1c(-c2cccc(O)c2)cc(-c2nc3ccccc3[nH]2)nc1N
inactive: all assays above

N#Cc1c(-c2ccccc2Cl)cc(-c2nc3ccccc3[nH]2)nc1N
inactive: all assays above

Cc1ccc(-c2cc(-c3nc4ccccc4[nH]3)nc(N)c2C#N)cc1
inactive: all assays above

N#Cc1c(-c2ccccc2O)cc(-c2nc3ccccc3[nH]2)nc1N
inactive: all assays above

COc1ccc(-c2cc(-c3nc4ccccc4[nH]3)nc(N)c2C#N)cc1
inactive: all assays above

N#Cc1c(-c2ccc(O)cc2)cc(-c2nc3ccccc3[nH]2)nc1N
inactive: all assays above
